pIC50: −log10 of the molar value. Several values for one entry are separate records, joined by “and”; a condition that tells them apart may be missing. Equal entries are not always repeated.
How the values were obtained:
NTCP [1] = settings: cited from earlier work
NTCP [2] = target: T1, NTCP (Homo sapiens, UniProt Q14973); experiment: [3H]rosuvastatin transport inhibition assay in NTCP-HEK293 cells; assay type: cell-based; settings: 1 μM [3H]rosuvastatin, 10 min; two independent experiments; read-out: IC50 NTCP [3H]rosuvastatin uptake
T1 construct: stably transfected with the full open reading frames of human NTCP, ASBT, SOAT, OATP1B1, OATP1B3, OATP2B1, and murine Asbt (mAsbt); expressed in transfected cells; host or cells: HEK293 (Flp-In), stably transfected, tetracycline-induced
T1 sequence (Q14973 1-349): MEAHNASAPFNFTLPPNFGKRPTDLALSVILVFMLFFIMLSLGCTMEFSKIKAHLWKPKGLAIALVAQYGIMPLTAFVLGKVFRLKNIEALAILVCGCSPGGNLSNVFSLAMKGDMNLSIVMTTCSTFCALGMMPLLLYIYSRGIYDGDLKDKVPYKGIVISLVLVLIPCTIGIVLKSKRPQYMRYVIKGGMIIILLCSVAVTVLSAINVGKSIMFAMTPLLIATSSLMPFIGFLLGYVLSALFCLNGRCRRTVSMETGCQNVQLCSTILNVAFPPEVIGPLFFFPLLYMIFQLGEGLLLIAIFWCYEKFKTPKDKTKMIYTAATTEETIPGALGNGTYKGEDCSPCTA
Source text: (§1) Human embryonic kidney HEK293 cells, stably transfected with the full open reading frames of human NTCP, ASBT, SOAT, OATP1B1, OATP1B3, OATP2B1, and murine Asbt (mAsbt) were used as reported ([18], [20], [21], [22], [23]). The NTCP, ASBT, and mAsbt constructs were C-terminally tagged with the FLAG epitope, and the SOAT construct was C-terminally tagged with green fluorescent protein. Non-transfected Flp-In HEK293 cells (Thermo Fisher Scientific) served as the control. All cell lines were maintained at 37°C, 5% CO2 and 95% humidity in DMEM/F-12 medium (Thermo Fisher Scientific) supplemented with 10% fetal calf serum (Sigma-Aldrich), 4 mM L-glutamine (PAA) and penicillin/streptomycin (PAA). […]
(§2) Cells were seeded onto poly-L-lysine-coated 96-well plates, induced with 1 μg/ml tetracycline, and grown to confluence over 72 h at 37°C. […] Then, the cell-associated radioactivity of the respective tritium-labeled substrate or ligand was quantified by liquid scintillation counting using MicroScint-20 scintillation cocktail (Revvity) in a Packard Microplate Scintillation Counter TopCount NXT (Packard Instrument Company). […] Finally, all net transport data were expressed as uptake or binding as % of control. […] From the specific uptake rates, Michaelis Menten Km values were calculated by non-linear regression analysis.

NTCP [3] = target: T1, NTCP; experiment: [3H]DHEAS transport inhibition assay in NTCP-HEK293 cells; assay type: cell-based; settings: 1 μM [3H]DHEAS, 10 min; two independent experiments; read-out: IC50 NTCP [3H]DHEAS uptake
Source text: as §1, §2

NTCP [4] = target: T1, NTCP; experiment: [3H]preS1 peptide binding to NTCP-HEK293 cells; settings: 5 nM [3H]preS1; two independent experiments
Source text: as §1, §2

murine Asbt (mAsbt) = target: T2, murine Asbt (mAsbt) (Mus musculus, UniProt P70172); experiment: [3H]TC transport and inhibition assay in mAsbt-HEK293 cells; assay type: cell-based; settings: for Inhibition curve/AUC of mAsbt compared to ASBT: 1 μM [3H]TC, 10 min, AUC combined from two experiments
T2 construct: stably transfected with the full open reading frames of human NTCP, ASBT, SOAT, OATP1B1, OATP1B3, OATP2B1, and murine Asbt (mAsbt); expressed in transfected cells; host or cells: HEK293 (Flp-In), stably transfected, tetracycline-induced
T2 sequence (P70172 1-348): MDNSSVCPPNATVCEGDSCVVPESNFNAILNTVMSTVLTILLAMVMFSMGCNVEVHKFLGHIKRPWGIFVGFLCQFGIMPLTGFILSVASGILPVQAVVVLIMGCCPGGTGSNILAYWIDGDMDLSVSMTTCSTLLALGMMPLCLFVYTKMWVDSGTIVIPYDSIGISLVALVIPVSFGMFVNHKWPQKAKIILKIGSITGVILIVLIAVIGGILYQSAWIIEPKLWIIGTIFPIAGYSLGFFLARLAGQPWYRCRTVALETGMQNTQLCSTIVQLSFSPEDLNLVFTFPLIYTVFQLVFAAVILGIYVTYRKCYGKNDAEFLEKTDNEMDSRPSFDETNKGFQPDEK
Source text: Human embryonic kidney HEK293 cells, stably transfected with the full open reading frames of human NTCP, ASBT, SOAT, OATP1B1, OATP1B3, OATP2B1, and murine Asbt (mAsbt) were used as reported ([18], [20], [21], [22], [23]). The NTCP, ASBT, and mAsbt constructs were C-terminally tagged with the FLAG epitope, and the SOAT construct was C-terminally tagged with green fluorescent protein. Non-transfected Flp-In HEK293 cells (Thermo Fisher Scientific) served as the control. All cell lines were maintained at 37°C, 5% CO2 and 95% humidity in DMEM/F-12 medium (Thermo Fisher Scientific) supplemented with 10% fetal calf serum (Sigma-Aldrich), 4 mM L-glutamine (PAA) and penicillin/streptomycin (PAA). Expression of the respective carrier protein was induced by tetracycline treatment at 1 μg/ml (Carl Roth GmbH + Co. KG).
Cells were seeded onto poly-L-lysine-coated 96-well plates, induced with 1 μg/ml tetracycline, and grown to confluence over 72 h at 37°C. Then, cells were washed with tempered (37°C) phosphate-buffered saline (PBS, containing 137.0 mM NaCl, 2.7 mM KCl, 1.5 mM KH2PO4, and 7.3 mM Na2HPO4, at pH 7.4) and preincubated with 80 μl sodium transport buffer (STB, containing 142.9 mM NaCl, 4.7 mM KCl, 1.2 mM MgSO4, 1.2 mM KH2PO4, 1.8 mM CaCl2, and 20.0 mM HEPES, at pH 7.4) for 5 min at 37°C. For inhibition studies, the medium was replaced by 80 μl STB containing the respective inhibitor or solvent alone and cells were further incubated for 5 min at 37°C. Transport experiments were started by adding 20 μl of a 5-fold concentrated substrate solution (solved in STB). For transport experiments under sodium-free conditions the same buffer composition was used as for STB, but sodium chloride was substituted with equimolar concentrations of choline chloride as previously reported ([20], [24]). Transport experiments were stopped by washing twice with ice-cold PBS and the plates were kept cool on ice until adding the lysis buffer [1% sodium dodecyl sulfate (SDS) and 1 N NaOH]. Then, the cell-associated radioactivity of the respective tritium-labeled substrate or ligand was quantified by liquid scintillation counting using MicroScint-20 scintillation cocktail (Revvity) in a Packard Microplate Scintillation Counter TopCount NXT (Packard Instrument Company). For IC50 transport inhibition measurements, the mean uptake values measured in non-carrier-expressing HEK293 control cells were defined as 0% uptake control and were subtracted from all other values. Values from cells without inhibitor and solvent alone were set to 100%. Finally, all net transport data were expressed as uptake or binding as % of control. […] From the specific uptake rates, Michaelis Menten Km values were calculated by non-linear regression analysis.

ASBT = target: T3, ASBT (Homo sapiens, UniProt Q12908); experiment: Transport inhibition and recovery assay (inhibitor washout) in ASBT-HEK293 cells; assay type: cell-based; settings: 3 μM inhibitor, 5 min preincubation, 10 min uptake of 1 μM [3H]TC
T3 construct: stably transfected with the full open reading frames of human NTCP, ASBT, SOAT, OATP1B1, OATP1B3, OATP2B1, and murine Asbt (mAsbt); expressed in transfected cells; host or cells: HEK293 (Flp-In), stably transfected, tetracycline-induced
T3 sequence (Q12908 1-348): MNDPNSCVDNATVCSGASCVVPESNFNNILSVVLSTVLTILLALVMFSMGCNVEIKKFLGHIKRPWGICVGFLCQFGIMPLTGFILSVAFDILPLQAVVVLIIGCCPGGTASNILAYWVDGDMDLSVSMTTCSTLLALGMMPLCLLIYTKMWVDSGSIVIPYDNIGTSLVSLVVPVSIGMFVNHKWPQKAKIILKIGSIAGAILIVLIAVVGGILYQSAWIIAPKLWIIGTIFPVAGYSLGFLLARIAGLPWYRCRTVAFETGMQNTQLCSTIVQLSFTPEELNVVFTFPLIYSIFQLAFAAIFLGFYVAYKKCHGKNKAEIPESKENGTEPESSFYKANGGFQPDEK

Row | pIC50 (NTCP [2]) | pIC50 (NTCP [3]) | pIC50 (NTCP [4]) | ASBT inhibition with inhibitor present during uptake (inhibitor + [3H]TC) (ASBT) | Transport inhibition at highest substrate concentration (murine Asbt (mAsbt); 500 μM [3H]TC) | Structure (SMILES) | Inhibition of NTCP (NTCP [1]; 50 μM, NTCP expressed in CHO cells, ref FDA NDA 214662 Livmarli) | Inhibition curve/AUC of mAsbt compared to ASBT (murine Asbt (mAsbt)) | IC50 values at increasing substrate concentrations (in words) (murine Asbt (mAsbt); [3H]TC 0.3-500 μM) | pIC50 (NTCP [1]; ref PMDA Goofice Report on the Deliberation Results, read-out: IC50 NTCP inhibition)
1 |  |  |  |  |  | CCCCC1(CCCC)CS(=O)(=O)c2ccc(N(C)C)cc2[C@@H](c2ccc(OCc3ccc(C[N+]45CCN(CC4)CC5)cc3)cc2)[C@H]1O [maralixibat] | Maralixibat at 50 μM produced 5% inhibition of NTCP expressed in CHO cells. |  |  | 
2 | 5.18 and 5.27 | 5.06 and 5.26 | 3.84 and 4.80 |  |  | CCCCC1(CCCC)CN(c2ccccc2)c2cc(SC)c(OCC(=O)N[C@@H](C(=O)N[C@@H](CC)C(=O)O)c3ccc(O)cc3)cc2S(=O)(=O)N1 [odevixibat] |  | much more potent inhibitor of the human ASBT protein compared to mAsbt |  | 
3 |  |  |  | full ASBT inhibition | full transport inhibition | CCCC[C@]1(CC)CS(=O)(=O)c2cc(CNC(CC(=O)O)CC(=O)O)c(OC)cc2[C@@H](c2ccccc2)N1 [linerixibat] |  | lower AUC values were determined for mAsbt compared to ASBT but without reaching the level of significance | remained quite stable | 
4 | 4.72 and 4.92 | 4.93 and 4.95 | 3.83 and 4.44 |  |  | CCCCC1(CCCC)CN(c2ccccc2)c2cc(SC)c(OCC(=O)N[C@@H](C(=O)NCC(=O)O)c3ccccc3)cc2S(=O)(=O)C1 [elobixibat] |  |  |  | 6.62

Reference: paper PMC12596218 (Journal of Lipid Research, 2025)
